# In patent US20150018427A1, “COMPOUNDS FOR TREATING PARVOVIRUS INFECTION” (ARATANA THERAPEUTICS NV, priority 2012, published 2015):
# Counter-ions that a name gives are not always drawn.
# How the values were obtained:
# [1] = tested on: canine parvovirus 2c (CPV-2c); assay: CPE visual scoring assay, CPV-2c in CrFK cells; format: cell-based
# [2] = tested on: feline panleukopenia virus (FPV); assay: CPE visual scoring assay, FPV in CrFK cells; format: cell-based
# Procedure: Crandell Reese Feline Kidney (CrFK) cells were grown in Dulbecco minimum essential medium (DMEM, Life Technologies) containing 1% sodium bicarbonate (Life Technologies), 1% L-Glutamine (Life Technologies) and 5% fetal calf serum (FCS, Biochrom). In a 96 well plate a serial dilution of compound was added together with 10 TCID50 of feline panleukopenia virus (FPV) or 10 TCID50 canine parvovirus 2c (CPV-2c) and 20,000 CrFK cells. Infected cells without any added compound were used as positive controls (virus control) and uninfected cells were used as negative controls (cell control). The cells were incubated for 4 days and viral cytopathogenic effect (CPE) was scored visually. EC50-values were determined as the concentration of compound that inhibited 50% of the viral replication as compared with virus control.
# 2-methyladamantan-2-amine HCl and 2-ethyladamantan-2-amine HCl were dissolved in Dulbecco's phosphate buffered saline (DPBS) at a concentration of 10 mM. The inhibition experiments and the preparation thereof were performed as described above for Example 2. […]
# [3] = tested on: feline panleukopenia virus (FPV); assay: FPV DNA reduction by quantitative PCR, CrFK cells; format: cell-based; settings: read-out: EC50-value (μM) for FPV, DNA reduction
# Procedure: (§1) Amantadine, amantadine hydrochloride (HCl) and memantine were dissolved in Dulbecco's phosphate buffered saline (DPBS) at a concentration of 10 mM. Crandell Reese Feline Kidney (CrFK) cells were grown in Dulbecco minimum essential medium (DMEM, Life Technologies) containing 1% sodium bicarbonate (Life Technologies), 1% L-Glutamine (Life Technologies) and 5% fetal calf serum (FCS, Biochrom). In a 24 well plate 100,000 CrFK cells were seeded on day 0. On day 1, the medium was removed and 10 TCID50 of FPV or 10 TCID50 CPV-2c was added and incubated for 2 h at 37° C. in humidified conditions. After incubation, medium was removed and CrFK cells were washed with DPBS. Subsequently, a serial dilution of compound in culture medium was added (250, 50, and 10 μM). Infected cells without any added compound were used as positive controls (virus control) and uninfected cells were used as negative controls (cell control). The cells were incubated at 37° C. in humidified conditions. After 4 days of incubation medium containing newly produced virus particles was collected and viral titers were determined using CrFK cells. In addition, 200 μL of supernatant was extracted to obtain FPV or CPV-2c DNA using the QIAamp DNA extraction kit (Qiagen). The extracted FPV DNA was detected by a real time PCR using the Taqman Fast Universal mastermix (Life Technologies) and the standard Fast cycling protocol using the StepOnePlus real time device (Applied Biosystems). In the PCR mixture an optimized 900 nM of each forward and reverse primer was used and 250 nM FAM-BHQ1 labeled probe as published by Decaro et al. (J. Virol. Methods 2008, 147, 67-71). EC50 values were determined as the concentration of compound that inhibited 50% of the viral DNA.
# 2-methyladamantan-2-amine HCl and 2-ethyladamantan-2-amine HCl were dissolved in Dulbecco's phosphate buffered saline (DPBS) at a concentration of 10 mM. The inhibition experiments and the preparation thereof were performed as described above for Example 2.
# [4] = tested on: canine parvovirus 2c (CPV-2c); assay: CPV-2c DNA reduction by quantitative PCR, CrFK cells; format: cell-based
# [5] = tested on: canine parvovirus 2c (CPV-2c); assay: CPV-2c titer reduction, titration of produced virus on CrFK cells; format: cell-based
# [6] = tested on: feline panleukopenia virus (FPV); assay: FPV titer reduction, titration of produced virus on CrFK cells; format: cell-based
# Procedure: as §1
# Reduction of CPV-2c and FPV titers under increasing concentrations of amantadine hydrochloride (HCl) and memantine are shown in Table 3a and 3b, respectively. Viral titers are determined by titration of the produced virus on CrFK cells and incubated for 5 days. The obtained titers where compared with the control (virus production without addition of compound).
# [7] = tested on: canine parvovirus type 2 (CPV2); assay: Treatment of dog naturally infected with canine parvovirus type 2; format: in vivo; settings: beagle puppy, CPV2 PCR-positive, 10 mg/kg twice daily for 2 weeks
# [8] = Canine parvovirus, 96 h, Table 1, CPE visual scoring, CrFK cells, 10 TCID50, 4 days, read-out: EC50-value (μM) for CPV-2c
# [9] = Feline panleukopenia virus, CRFK, 96 h, Table 1, CPE visual scoring, CrFK cells, 10 TCID50, 4 days, read-out: EC50-value (μM) for FPV
# [10] = Feline panleukopenia virus, CRFK, Table 4b, quantitative PCR
# [11] = Canine parvovirus, CRFK, Table 4a, CPE visual scoring assay, read-out: EC50-value (μM) for CPV-2c
# [12] = Feline panleukopenia virus, CRFK, read-out: EC50-value (μM) for FPV, Table 4a, CPE visual scoring assay
# [13] = CRFK, Table 4b, quantitative PCR, read-out: EC50-value (μM) for CPV-2c, DNA reduction
# [14] = 96 h, Table 2, viral DNA in supernatant by quantitative PCR, CrFK cells, 4 days, read-out: EC50-value (μM) for CPV-2c, DNA reduction
# [15] = Feline panleukopenia virus, CRFK, 96 h, Table 2, viral DNA in supernatant by quantitative PCR, CrFK cells, 4 days
# [16] = Canine parvovirus, CRFK, 96 h, read-out: EC50-value (μM) for CPV-2c, Table 1, CPE visual scoring, CrFK cells, 10 TCID50, 4 days
Structure (SMILES),"EC50 [1, 8]","EC50 [2, 9]","Titer reduction of CPV-2c, log10 reduction compared with control ([5]; 10 μM compound)","Titer reduction of CPV-2c, log10 reduction compared with control ([5]; 50 μM compound)","Titer reduction of CPV-2c, log10 reduction compared with control ([5]; 250 μM compound)","Titer reduction of FPV, log10 reduction compared with control ([6]; 10 μM compound)","Titer reduction of FPV, log10 reduction compared with control ([6]; 50 μM compound)","Titer reduction of FPV, log10 reduction compared with control ([6]; 250 μM compound)",further results
NCC12CC3CC(CC(C3)C1)C2 [1-adamantanemethylamine],> 250 µM,> 250 µM,,,,,,,
"NC1C2CC3CC(C2)CC1C3 (centres unmarked) [2-adamantylamine HCl, 2-adamantylamine hydrochloride]",5.12 µM,17.3 µM,,,,,,,
CCC1(N)C2CC3CC(C2)CC1C3 (centres unmarked) [2-ethyladamantan-2-amine],,,,,,,,,"EC50 [3, 10]: 1.31 µM; EC50 [1, 11]: 4.2 µM; EC50 [2, 12]: 2.42 µM; EC50 [4, 13]: 2.44 µM"
CC1(N)C2CC3CC(C2)CC1C3 (centres unmarked) [2-methyladamantan-2-amine],,,,,,,,,"EC50 [3, 10]: < 0.781 µM; EC50 [1, 11]: 2.25 µM; EC50 [2, 12]: 1.95 µM; EC50 [4, 13]: 1.14 µM"
NC12CC3CC(C1)CC(O)(C3)C2 [3-amino-1-amantadol],,,,,,,,,"EC50 ([1]; Table 1, CPE visual scoring, CrFK cells, 10 TCID50, 4 days, read-out: EC50-value (μM) for CPV-2c): > 250 µM; EC50 ([2]; Table 1, CPE visual scoring, CrFK cells, 10 TCID50, 4 days, read-out: EC50-value (μM) for FPV): > 250 µM"
"Cl.NC12CC3CC(CC(C3)C1)C2 [Amantadine HCl, 1-Aminoadamantane hydrochloride]",14 µM,,0.50 log10,2.71 log10,2.71 log10,0 log10,1.50 log10,2.44 log10,"EC50 ([3]; Table 2, viral DNA in supernatant by quantitative PCR, CrFK cells, 4 days, hydrochloride): 30.1 µM; EC50 ([2]; Table 1, CPE visual scoring, CrFK cells, 10 TCID50, 4 days, hydrochloride, read-out: EC50-value (μM) for FPV): 33.3 µM; Clinical signs of parvovirus infection [7]: improved from day 3 onwards; Recovery after 2 weeks of treatment [7]: recovered completely; EC50 [4, 14]: 6.59 µM"
"NC12CC3CC(CC(C3)C1)C2 [Amantadine, amantadine]",,18.7 µM,0 log10,2.23 log10,2.23 log10,0 log10,0.48 log10,1.43 log10,"EC50 [3, 15]: 57.1 µM; EC50 [1, 16]: 22.6 µM; EC50 ([4]; CRFK, 96 h, read-out: EC50-value (μM) for CPV-2c, DNA reduction, Table 2, viral DNA in supernatant by quantitative PCR, CrFK cells, 4 days): 53.5 µM"
"CC12CC3CC(C)(C1)CC(N)(C3)C2 [Memantine, memantine]",23.9 µM,23.3 µM,0 log10,0.50 log10,1.55 log10,0 log10,0.71 log10,1.41 log10,"EC50 [3, 15]: 42.6 µM; EC50 [4, 14]: 17.9 µM"
CNC12CC3CC(CC(C3)C1)C2 [N-methyl-1-adamantylamine],> 250 µM,> 250 µM,,,,,,,
"CC(N)C12CC3CC(CC(C3)C1)C2 (centres unmarked) [Rimantadine, rimantadine]",,> 250 µM,,,,,,,"EC50 [1, 16]: > 250 µM"
